This note sets out measurements from patent US20050113348A1, “Vitamin D and vitamin D analogs or derivatives as new anti-hypertensive agents” (priority 2003, published 2005).

The test system of series [1] is renin mRNA, As4.1-hVDR cells. The experiment in a line: Renin mRNA by Northern blot in As4.1-hVDR cells (vitamin D analog screening). The format is cell-based, mouse. Details: Relative inhibitory activity (renin suppressive activity of Gemini analogues): key to the marks not given beside the values. The conditions noted are these: As4.1-hVDR cells, 24 hours at 10-8, 10^-9 and 10^-10 M; renin mRNA by Northern blot; relative to 1,25-dihydroxyvitamin D3. The protocol: Vitamin D analogues listed in TABLE 1 were used to treat As4.1-hVDR cells at 10^−10, 10^−9 and 10^−8 M. Renin mRNA was analyzed by Northern blot. 36B4 is a control mRNA and represents a mouse acidic ribosomal phosphoprotein.
FIG. 4 is an histogram of evaluation of Gemini analogues by Northern blot analysis. The 11 Gemini compounds listed in TABLE 2 (indicated) were used to treat As4.1 hVDR cells at 10^−10, 10^−9, and 10^−8 M for 24 hours. Renin mRNA was quantitated by Northern blots. The quantitative data obtained at 10^−10 and 10^−9 M are shown in A and B. The # of each compound corresponds to the number shown in TABLE 2. E, ethanol-treated control, VD, 1,25(OH)2D3.
(§1) RNA isolation and northern blot. The kidney and liver were dissected and immediately placed into the Trizol Reagent (Invitrogen, Grand Island, N.Y.) for total RNA isolation according to the manufacturer's instruction. To determine renin or angiotensinogen mRNA expression, total RNA (20 μg/lane) was separated on a 1.2% agarose gel containing 0.6 M formaldehyde, transferred onto a Nylon membrane (MSI, Westborough, Mass.) and crosslinked in a UV crosslinker (Bio-Rad, Hercules, Calif.). Hybridization was performed as described by Li et al. (2001). Mouse renin and angiotensinogen cDNA probes were labeled with ^32P-dATP (ICN, Costa Mesa, Calif.) using the Prime-a-gene Labeling System (Promega, Madison, Wis.). After hybridization and washing, membranes were exposed to X-ray films at −80° C. for autoradiography. The relative amount of mRNA was quantitated using a Phospholmager (Molecular Dynamics, Sunnyvale, Calif.) and normalized with 36B4 mRNA.
As4.1 cell culture and transfection. As4.1 cells (ATCC, Manassas, Va.) were cultured in DMEM supplemented with 10% FBS at 37° C. and 5% CO2. For transient transfection, the cells were grown in 10-cm dishes to 50% confluence and transfected with pcDNA3.1, pcDNA-hVDR or pcDNA-PTH/PTHrPR plasmid (10 μg DNA/dish) by the standard calcium phosphate method. Twenty-four hr after transfection, the cells were treated for 24 hr with 5×10^−8 M of 1,25(OH)2D3 or ethanol in serum-free media, or with different doses of bovine PTH(1-34) as indicated. Total RNA was isolated and analyzed for renin mRNA expression by northern blot. For stable transfection, As4.1 cells were transfected with pcDNA3.1 or pcDNA-hVDR plasmid by the use of Superfect reagent (Qiagen, Valencia, Calif.) and selected with 350 μg/ml of G418 for two weeks. Individual colonies were picked, expanded and selected for VDR expression. The As4.1-hVDR stable clones were treated with different doses of 1,25(OH)2D3 for 24 hr in serum-free media, and total RNA were analyzed by northern blot to examine renin expression.

Series [2] relates to 4.1 kb renin gene promoter (Ren-1c), As4.1-hVDR cells. The experiment in a line: Renin gene promoter luciferase reporter assay in As4.1-hVDR cells. The conditions noted are these: pGL-4.1 kb-Luc transfected As4.1-hVDR cells, 10^−8 M. It is filed as cell-based, mouse. From the text: As4.1-hVDR cells were transfected with pGL-4.1 kb-Luc, and treated with ethanol (E), 10^−8 M of 1,25(OH)2D3 (VD3) and different analogues as indicated.
A. Expression of hVDR mRNA in stable As4.1 clones. P, parental As4.1 cells; #57, As4.1 clone 57 stably transfected with pcDNA-hVDR; V, As4.1 clone stably transfected with the empty vector pcDNA3.1. B. Renin mRNA expression in As4.1 clone V (Vector) and #57 treated with ethanol (E) or different doses of 1,25(OH)2D3 as indicated. c. As4.1-hVDR cells (clone #57) were transfected with pGL3-Control, pGL-4.1 kb or pGL-117 bp luciferase reporter plasmid and then treated with ethanol (closed bar) or 10^−8 M of 1,25(OH)2D3 (open bar). Luciferase activity was determined 48 hr after transfection. Similar results were obtained in other stable clones.
Renin gene promoter analysis. Plasmid pR1C-4.1 CAT that contains 4.1 kb 5′-flanking sequence of mouse Ren-1^c gene (Petrovic et al. 1996) was provided by Dr. K. W. Gross (Roswell Park Cancer Institute, Buffalo, N.Y.). To generate pGL-117 bp reporter plasmid, the 123 bp renin minimal promoter fragment (+6 to −117) was released from pR1C-4.1 CAT with XbaI and BamHI and inserted into the HindIII site of pGL3-basic vector (Promega, Madison, Wis.). To generate pGL-4.1 kb reporter plasmid, the BamHI fragment (−4.1 kb to −118 bp) from pRI C-4.1 CAT was inserted into the BglII site of pGL-117 bp. To analyze the activity of renin gene promoter, As4.1-hVDR cells were transfected with the reporter plasmids by electroporation according to Shi et al. (2001) using a Bio-Rad Gene Pulser (Bio-Rad, Hercules, Calif.). pCMV-β-gal plasmid was co-transfected as an internal control. pGL3-control plasmid (Promega) was used as the positive control. The transfected cells were treated with ethanol or 10^−8 M of 1,25(OH)2D3 in Opti-MEM medium (Invitrogen) containing 2% charcoal-treated FBS four hr after electroporation, and luciferase activity was determined at 48 hr after initial transfection, using the Luciferase Assay System (Promega). Luciferase activity was normalized to β-gal activity obtained from the same electroporation, and presented as fold induction based on the basal activity of pGL3-basic empty vector determined in the same experiment.
A general note: In a reporter assay the amount or activity of a reporter protein is the signal.

Series [3] relates to renin mRNA in the kidney. The experiment in a line: Renin mRNA in the kidney of treated mice (Northern blot). The format is in vivo, mouse. The protocol: A. […] The 2 doses were given in two consecutive days at 9 am. The 5 doses were given in three consecutive days at 9 am and 7 pm for the first two days, and at 9 am on the third day. Total renal RNA was isolated 6 hr after the last injection. Renin, calbindin-D9k (CaBP-D9k) and 36B4 mRNA levels were determined by Northern blot analysis. B. Quantitation of renin mRNA levels.
(A) Blood ionized calcium levels.
As a control for vitamin D action, Calbindin-D9k stimulation was measured. Quantitative data were presented below the Northern blot gels.
Total kidney RNAs were separated on agarose gels (20 μg/lane). Membranes were hybridized sequentially with 32P-labeled renin and 36B4 cDNA probes. The relative amount of renin mRNA was quantitated after being normalized with 36B4 mRNA levels. […] (B) Quantitative results-from Northern blots in (A).
Animals and treatment. […] VDR^−/− and Gcm2^−/− mice were generated through breeding of heterozygous mice and identified by PCR with tail genomic DNA as the template, and the wild-type littermates were used as controls. […] To increase the sodium load, mice were fed the normal rodent diet supplemented with 8% NaCl for 1, 3, 5 and 7 days. […] Wild-type mice were injected (i.p.) with vehicle or 30 pmole of 1,25(OH)2D3 dissolved in propylene glycol. Mice were sacrificed by exsanguination under anesthesia and the blood was collected into ice-cold tubes for serum isolation, or into ice-cold tubes containing 50 μl of EDTA (pH 8.0) and 100 U/ml aprotinin for plasma isolation. The determination of water and food intake, as well as urine collection, were carried out by using metabolic cages.
as §1, with “To determine renin or angiotensinogen mRNA expression, total RNA (20 μg/lane) was separated on a 1.2% agarose gel containing 0.6 M formaldehyde, transferred onto a Nylon membrane (MSI, Westborough, Mass.) and crosslinked in a UV crosslinker (Bio-Rad, Hercules, Calif.). Hybridization was performed as described by Li et al. (2001).” left out

A short description of series [4]: Blood ionized calcium and survival of treated mice. The format is in vivo, mouse. The source says:
Two-month old wildtype mice were fed the normal diet supplemented with 2.5% strontium chloride for 7 weeks before sacrifice. A. Northern blot analysis of renin mRNA expression in the kidney from non-treated and strontium-treated wildtype mice. Each lane represents an individual animal. B. Quantitative results of the northern analysis. C. Blood ionized calcium concentration determined at the end of the treatment (n=5 in each group). In both b and c, NT, non-treated; STR, strontium-treated, *, P<0.01 vs. NT value.
(A) Blood ionized calcium levels. Normal mice (n=5) were treated with vehicle (control), 1,25(OH)2D3 (VD3) or compound #9 at a daily dose of 1.5 μg/kg body weight for one week. […] (B) Renin mRNA levels in the kidneys of treated mice, as determined by quantitative Northern blots. *, P<0.01.
Measurement of blood and urine parameters. The concentration of blood ionized calcium was determined using a Ciba/Coming 634 Ca^++/pH analyzer (Chiron Diagnostics, East Walpole, Mass.) from 50 μl of whole blood obtained from tail snipping. Blood glucose concentrations were determined by using One Touch Sure Step test strips (Life Scan, Milpitas, Calif.). Serum intact parathyroid hormone (iPTH) was determined using a commercial ELISA kit (Immutopics, San Clemente, Calif.). The concentration of serum and urinary Na^+, K^+, and creatinine was determined by a Beckman Coulter CX5 Autoanalyzer as described by Li et al. (2001).

Series [5] has as its system renin mRNA, As4.1 cells. The experiment in a line: Renin mRNA by northern blot in As4.1 cells with or without transient transfection. It is filed as cell-based, mouse. The conditions noted are these: As4.1 cells, or As4.1 transfected with pcDNA-PTH/PTHrPR; different doses.
From the text: A. As4.1 cells were transiently transfected with (+) or without (−) pcDNA-hVDR plasmid containing the full-length human VDR cDNA and then. treated with 5×10^−8 M of 1,25(OH)2D3 (+) or ethanol (−) for 24 hrs. Total cellular RNA was isolated and analyzed by northern blot with renin and 36B4 cDNA probes. B. Quantitative results of northern blot analyses obtained from three independent experiments. C, ethanol-treated; VD, 1,25(OH)2D3-treated; T, transfected with pcDNA-hVDR and treated with ethanol; T/VD, transfected with pcDNA-hVDR and treated with 1,25(OH)2D3. *, P<0.001 vs. C, VD or T value. C. Renin mRNA expression in As4.1 cells (left panel), and in As4.1 cells transfected with pcDNA-PTH/PTHrPR containing the rat PTH/PTHrP receptor cDNA (right panel) and treated with bovine PTH (1-34) as indicated. −, untreated.
as §1
As4.1 cell culture and transfection. […] Total RNA was isolated and analyzed for renin mRNA expression by northern blot. […] The As4.1-hVDR stable clones were treated with different doses of 1,25(OH)2D3 for 24 hr in serum-free media, and total RNA were analyzed by northern blot to examine renin expression.

Setting [6] is: normal mice, daily dose 1.5 μg/kg body weight for one week.
Setting [7] is: wildtype mice, normal diet with 2.5% strontium chloride for seven weeks.

For `C=C1C(=CC=C2CCCC3(C)C2CCC3C(CCCC(C)(C)O)CCCC(C)(C)O)CC(O)CC1O` (centres unmarked) [#4, 1,25-dihydroxy-21(3-methyl-3-hydroxy-butyl)-cholecalciferol], the “Relative inhibitory activity (renin suppressive activity of Gemini analogues)” value in series [1] is listed as “++”. For the same compound, the “Suppression of renin promoter activity (luciferase)” value in series [2] is given as “super-potency”.

Turning to `CC(C)(O)CCCC(CCCC(C)(C)O)C1CCC2C(=CC=C3CC(O)CC(O)C3)CCCC21C` (centres unmarked) [#9, 1,25-dihydroxy-21(3-methyl-3-hydroxy-butyl)-19-nor-cholecalciferol], in series [2], the “Suppression of renin promoter activity (luciferase)” value is on record as “super-potency”. The “Renin mRNA expression in the kidneys” value in series [3] (setting [6]) is “reduced”. For the same compound, the “Reduction in renin mRNA levels in the kidneys” value was 54% in series [3] (normal mice, daily dose 5 μg/kg body weight for one week) and 76% in series [3] (normal mice, daily dose 12 μg/kg body weight for one week). Further, the Blood calcium level result in series [4] (setting [6]) is reported as “minimal increase”.

With `C=C1C(=CC=C2CCCC3(C)C2CCC3C(CCCC(C)(C)O)CCC(O)C(C)(C)O)CC(O)CC1O` [#18, 1,25-dihydroxy-21(2R,3-hydroxy-3-methylbutyl)-20S-cholecalciferol], the “Relative inhibitory activity (renin suppressive activity of Gemini analogues)” value in series [1] was “++”.

On to `[Cl-].[Cl-].[Sr+2]` [strontium, strontium chloride], for which, in series [3] (setting [7]), the “Renin mRNA expression in the kidney” value is reported as “significant increase”. In series [4] (setting [7]), the Blood ionized calcium entry is on record as “hypocalcemic”.

As for “PTH(1-34): bovine PTH(1-34), parathyroid hormone fragment used to treat As4.1 cells (AVSEIQFMHNLGKHLSSMERVEWLRKKLQDVHNF; UniProt P01268 32-65, looked up, fragment)”, in series [5], the “Renin expression in PTH-treated As4.1 cells” value is on record as “No increase in renin expression”.
